In US11760744B2, “Fused ring compounds” (Genentech, Inc., priority 2018, dated 2023):

Key:
[1] = biological target: T1, K-Ras G12C mutant protein (Homo sapiens, UniProt P01116, G12C); assay: K-Ras G12C HTRF assay; assay type: biochemical; conditions: Table 1; unit or assay not given; several values in one cell
T1 construct: K-Ras G12C (residues 2-188) and SOS1 (residues 564-1049) had N-terminal 6-His; made in house; host or cells: E. coli
Description: In the above definition of R^2, the electrophilic moiety that is capable of forming a covalent bond with a cysteine residue is determined via K-Ras G12C-alkylation studies and Homogeneous Time Resolved Fluorescence (HTRF) assays. The G12C mutation of the K-Ras gene is a change in amino acid from glycine to cysteine at the 12th amino acid. The compounds according to the present disclosure were discovered using the HTRF assay and the K-Ras G12C-alkylation assay, as further detailed elsewhere herein below, and then NMR spectroscopy was later used to validate the specificity with which the molecule was attaching to G12C.

K-Ras G12C [2] = biological target: T2, K-Ras G12C (Homo sapiens, UniProt P01116, G12C); assay: Western blot assay for in cell alkylation of K-Ras G12C (HCC1171 cells); assay type: cell-based; parameters: endogenous in cells; host or cells: HCC1171; conditions: 18 hours at 37° C., 7 point dose response
Procedure, shortened: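 HCC1171 cells exposed to compounds for 18 h at 37° C, lysed, and analysed by SDS-PAGE/western blot with anti-K-Ras antibody and fluorescent secondary. Alkylated K-Ras separated by band shift; % alkylation = FI(alkylated)/(FI(alkylated)+FI(unalkylated))×100, IC50 from 7-point dose response.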
Target sequence in this assay (P01116 1-188 isoform P01116-2 G12C): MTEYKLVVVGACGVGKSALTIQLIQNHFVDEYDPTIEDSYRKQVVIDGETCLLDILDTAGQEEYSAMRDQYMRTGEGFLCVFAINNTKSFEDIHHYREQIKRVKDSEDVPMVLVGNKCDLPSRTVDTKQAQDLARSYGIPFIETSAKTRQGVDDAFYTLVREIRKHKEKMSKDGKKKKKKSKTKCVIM

K-Ras G12C [3] = biological target: T2, K-Ras G12C; assay: K-Ras G12C, SOS1, Raf RBD HTRF assay for inhibition of GTP exchange; assay type: biochemical; parameters: K-Ras G12C (residues 2-188) and SOS1 (residues 564-1049) had N-terminal 6-His; made in house; host or cells: E. coli; conditions: 18 hours preincubation with K-Ras G12C at room temperature; SOS1-mediated GTP exchange
Procedure, shortened: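 After 18 h at room temperature with compound, SOS1 (1.25 nM final) started exchange to GTP (150 μM final). C-Raf RBD, Tb-anti-FLAG and D2-anti-his (50, 1 and 12.5 nM) were then added. The 665/615 nm HTRF ratio was read after 2 h; buffer was HEPES/NaCl, 1 mM MgCl2, BSA, Tween-20 and DTT.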
Target sequence in this assay (P01116 2-188 isoform P01116-2 G12C): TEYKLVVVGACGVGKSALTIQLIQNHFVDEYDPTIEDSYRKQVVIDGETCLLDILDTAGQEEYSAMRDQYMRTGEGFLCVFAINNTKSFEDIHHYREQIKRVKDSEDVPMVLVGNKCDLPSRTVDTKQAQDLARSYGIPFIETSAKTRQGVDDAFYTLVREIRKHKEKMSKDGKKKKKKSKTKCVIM

T1 sequence (P01116 2-188 isoform P01116-2 G12C): as above

SMILES	IC50 [1] [µM]	EC50 (K-Ras G12C [2]) [µM]	IC50 (K-Ras G12C [3]) [µM]
C=CC(=O)N1CCN(c2nc(OCC3CCCN3C)nc3c2CCC2(CCCCC2)C3)CC1 (centres unmarked) [Example 25, 1-(4-(2′-((1-methylpyrrolidin-2-yl)methoxy)-5′,8′-dihydro-6′H-spiro[cyclohexane-1,7′-quinazolin]-4′-yl)piperazin-1-yl)prop-2-en-1-one]	5.4	–	–
C=CC(=O)N1CCN(c2nc(OCC3CCCN3C)nc3c2CCCC3)CC1 (centres unmarked) [Example 45, 1-(4-(2-((1-methylpyrrolidin-2-yl)methoxy)-5,6,7,8-tetrahydroquinazolin-4-yl)piperazin-1-yl)prop-2-en-1-one]	> 50	–	–
C=CC(=O)N1CCN(c2nc(OCCC3CCCN3C)nc3c2CCC(c2cc(O)cc4ccccc24)C3)CC1 (centres unmarked) [Example 52, 1-(4-(7-(3-hydroxynaphthalen-1-yl)-2-(2-(1-methylpyrrolidin-2-yl)ethoxy)-5,6,7,8-tetrahydroquinazolin-4-yl)piperazin-1-yl)prop-2-en-1-one]	0.051	–	–
C=CC(=O)Oc1cc(C2CCc3c(nc(OCC4CCCN4C)nc3N3CCN(C(=O)C=C)CC3)C2)c2ccccc2c1 (centres unmarked) [Example 50, 4-(4-(4-acryloylpiperazin-1-yl)-2-((1-methylpyrrolidin-2-yl)methoxy)-5,6,7,8-tetrahydroquinazolin-7-yl)naphthalen-2-yl acrylate]	0.16	–	–
C=CC(=O)N1CCN(c2ncnc3c2CC(C)C(c2nc(N)cc(C)c2C(F)(F)F)C3)CC1 (single isomer, unassigned) [Example 1, 1-(4-(7-(6-amino-4-methyl-3-(trifluoromethyl)pyridin-2-yl)-6-methyl-5,6,7,8-tetrahydroquinazolin-4-yl)piperazin-1-yl)prop-2-en-1-one]	> 50	–	–
C=CC(=O)N1CCN(c2nc(OCC[C@@H]3CCCN3C)nc3c2CCC(c2cc(O)cc4ccccc24)C3)CC1 (stereo partly drawn) [Example 52a, 1-(4-(7-(3-hydroxynaphthalen-1-yl)-2-(2-((S)-1-methylpyrrolidin-2-yl)ethoxy)-5,6,7,8-tetrahydroquinazolin-4-yl)piperazin-1-yl)prop-2-en-1-one]	–	0.99	0.051
C=CC(=O)N1CCN(c2nc(OCCCN3CCOCC3)nc3c2CCC(c2cc(O)cc4ccccc24)C3)[C@@H](C)C1 (stereo partly drawn) [Example 53a, 1-((3S)-4-(7-(3-hydroxynaphthalen-1-yl)-2-(3-morpholinopropoxy)-5,6,7,8-tetrahydroquinazolin-4-yl)-3-methylpiperazin-1-yl)prop-2-en-1-one]	–	0.23	0.022
COc1ccc(CN(Cc2ccc(OC)cc2)c2cc(C)c(I)c([C@@H]3Cc4nc(OC[C@@H]5CCCN5C)nc(N5CCN(C(=O)OC(C)(C)C)C[C@@H]5C)c4C[C@H]3C)c2F)cc1 (single isomer, unassigned) [Example 14a]	–	1	> 50
C=CC(=O)N1CCN(c2ncnc3c2C[C@H](C)[C@H](c2nc(N)cc(C)c2C(F)(F)F)C3)CC1 (single isomer, unassigned) [Example 1b]	–	10	> 50
C=CC(=O)N1CCN(c2nc(OC[C@@H]3C[C@@H](F)CN3C)nc3c2C[C@H](C)[C@@H](c2c(F)c(N)cc(C)c2C(F)(F)F)C3)[C@@H](C)C1 (single isomer, unassigned) [Example 36a]	–	0.27	0.36
C=CC(=O)N1CCN(c2nc(OC[C@@H]3CCCN3C)nc3c2CCC2(CCCCC2)C3)CC1 [Example 25a, (S)-1-(4-(2′-((1-methylpyrrolidin-2-yl)methoxy)-5′,8′-dihydro-6′H-spiro[cyclohexane-1,7′-quinazolin]-4′-yl)piperazin-1-yl)prop-2-en-1-one]	–	1	5.4
C=CC(=O)N1CCN(c2ncnc3c2C[C@@H](C)[C@@H](c2nc(N)cc(C)c2C(F)(F)F)C3)CC1 (single isomer, unassigned) [Example 1a]	–	10	> 50
C=CC(=O)N1CCN(c2nc(OC[C@@H]3CCCN3C)nc3c2CCC(c2cc(O)cc4ccccc24)C3)CC1CC#N (stereo partly drawn) [Example 58a, 2-(1-acryloyl-4-(7-(3-hydroxynaphthalen-1-yl)-2-(((S)-1-methylpyrrolidin-2-yl)methoxy)-5,6,7,8-tetrahydroquinazolin-4-yl)piperazin-2-yl)acetonitrile]	–	0.01	0.028
C=CC(=O)N1CCN(c2ncnc3c2C[C@@H](C)[C@H](c2nc(N)cc(C)c2C(F)(F)F)C3)CC1 (single isomer, unassigned) [Example 8b]	–	0.089	0.045
C=CC(=O)N1CCN(c2nc(OC[C@@H]3CCCN3C)nc3c2C[C@@H](C(C)C)[C@H](c2nc(N)cc(C)c2C(F)(F)F)C3)[C@@H](C)C1 (single isomer, unassigned) [Example 33a]	–	0.051	< 0.01
C=CC(=O)N1CCN(c2ncnc3c2CC[C@@H](c2nc(N)cc(C)c2C(F)(F)F)C3)CC1 [Example 26b, (R)-1-(4-(7-(6-amino-4-methyl-3-(trifluoromethyl)pyridin-2-yl)-5,6,7,8-tetrahydroquinazolin-4-yl)piperazin-1-yl)prop-2-en-1-one]	–	17	4.8
CN1CCC[C@H]1COc1nc2c(c(N3CCN(C(=O)/C=C/CF)C(CC#N)C3)n1)CCC(c1cc(O)cc3ccccc13)C2 (mixture of isomers) [Example 62a, 2-(1-((E)-4-fluorobut-2-enoyl)-4-(7-(3-hydroxynaphthalen-1-yl)-2-(((S)-1-methylpyrrolidin-2-yl)methoxy)-5,6,7,8-tetrahydroquinazolin-4-yl)piperazin-2-yl)acetonitrile]	–	0.014	0.018
CN1CCC[C@H]1COc1nc2c(c(N3CCN(C(=O)/C=C/CF)[C@H](CC#N)C3)n1)CC[C@H](c1cc(O)cc3ccccc13)C2 (single isomer, unassigned) [Example 62b]	–	2.9	0.18
C=CC(=O)Oc1cc(C2CCc3c(nc(OC[C@@H]4CCCN4C)nc3N3CCN(C(=O)C=C)CC3)C2)c2ccccc2c1 (stereo partly drawn) [Example 50a, 4-(4-(4-acryloylpiperazin-1-yl)-2-(((S)-1-methylpyrrolidin-2-yl)methoxy)-5,6,7,8-tetrahydroquinazolin-7-yl)naphthalen-2-yl acrylate]	–	0.17	0.16
C=CC(=O)N1CCN(c2nc(OC[C@@H]3CCCN3C)nc3c2CC[C@@H](c2cc(O)cc4ccccc24)C3)C[C@H]1CC#N (single isomer, unassigned) [Example 58e]	–	0.11	0.029
C=CC(=O)N1CCN(c2nc(OC[C@@H]3CCCN3C)nc3c2C[C@H](C)[C@@H](c2cc(O)cc4ccccc24)C3)[C@@H](C)C1 (single isomer, unassigned) [Example 22a]	–	0.1	0.02
C=CC(=O)N1CCN(c2nc(OCC3CCC(=O)N3)nc3c2CCC(c2cc(O)cc4ccccc24)C3)[C@@H](C)C1 (stereo partly drawn) [Example 55a, 5-(((4-((S)-4-acryloyl-2-methylpiperazin-1-yl)-7-(3-hydroxynaphthalen-1-yl)-5,6,7,8-tetrahydroquinazolin-2-yl)oxy)methyl)pyrrolidin-2-one]	–	6.7	1.4
C#CC[C@H]1CN(c2nc(OC[C@@H]3CCCN3C)nc3c2C[C@H](C)[C@@H](c2cccc4c2CCC4)C3)CCN1C(=O)C=C (single isomer, unassigned) [Example 40b]	–	1	0.56
C=CC(=O)N1CCN(c2nc(OC[C@@H]3CCCN3C)nc3c2C[C@H](C)[C@@H](c2cccc4c2CCC4)C3)C[C@@H]1CC#N (single isomer, unassigned) [Example 35c]	–	0.046	0.022
C=CC(=O)N1CCN(c2ncnc3c2CC[C@H](c2nc(N)ccc2C(F)(F)F)C3)CC1 (single isomer, unassigned) [Example 46b]	–	0.97	0.23
C=CC(=O)N1CCN(c2nc(OC[C@@H]3CCCN3C)nc3c2C[C@H](C)[C@@H](c2cccc4c2CCC4)C3)C[C@H]1CC#N (single isomer, unassigned) [Example 35a]	–	0.55	0.19
C=CC(=O)N1CCN(c2nc(OC[C@@H]3C[C@H](F)CN3C)nc3c2CC[C@H](c2cc(O)cc4ccccc24)C3)[C@@H](C)C1 (single isomer, unassigned) [Example 30a]	–	0.04	0.011
C=C(F)C(=O)N1CCN(c2nc(OC[C@@H]3CCCN3C)nc3c2CCC(c2cccc4ccccc24)C3)CC1CC#N (single isomer, unassigned) [Example 47c]	–	0.45	0.13
C=C(F)C(=O)N1CCN(c2nc(OC[C@@H]3C[C@@H](F)CN3C)nc3c2C[C@H](C)[C@@H](c2c(F)c(N)cc(C)c2C(F)(F)F)C3)C[C@H]1CC#N (single isomer, unassigned) [Example 38a]	–	1	3.6
